Data: patent US10494341B2, “Compound containing indoleacetic acid core structure and use thereof” (Beijing An Jian Xi Bio-Medical Technology Co., Ltd., priority 2015, dated 2019)

Assays:
COX-2 = target: T1, COX-2 (Rattus norvegicus, UniProt P35355); assay: COX-2 activity assay (PGE2 in gastric mucosa, EIA) in LPS-treated rats; assay type: in vivo; conditions: gavage, LPS 2.5 mg/kg-activated
T1 construct: from tissue; host or cells: rat gastric mucosa (LPS-treated rats, in vivo dosing)
T1 sequence (P35355 18-604): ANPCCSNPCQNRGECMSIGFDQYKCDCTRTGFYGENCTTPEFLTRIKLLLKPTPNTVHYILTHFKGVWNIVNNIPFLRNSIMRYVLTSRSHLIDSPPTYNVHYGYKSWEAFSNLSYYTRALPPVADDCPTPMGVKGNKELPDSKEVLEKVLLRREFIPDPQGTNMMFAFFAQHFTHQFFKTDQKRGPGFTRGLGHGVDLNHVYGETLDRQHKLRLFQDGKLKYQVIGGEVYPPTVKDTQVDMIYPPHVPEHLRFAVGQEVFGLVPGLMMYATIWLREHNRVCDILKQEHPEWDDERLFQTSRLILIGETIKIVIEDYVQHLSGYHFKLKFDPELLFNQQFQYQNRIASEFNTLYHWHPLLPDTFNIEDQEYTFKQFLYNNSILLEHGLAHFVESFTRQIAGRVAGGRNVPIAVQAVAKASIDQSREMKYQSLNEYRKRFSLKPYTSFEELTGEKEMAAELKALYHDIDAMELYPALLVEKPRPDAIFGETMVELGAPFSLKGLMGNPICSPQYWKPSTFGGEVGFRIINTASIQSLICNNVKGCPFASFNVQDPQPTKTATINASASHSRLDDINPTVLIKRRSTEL
Experimental: (2) COX-2 activity assay: The assay was similar to that of COX-1, except that LPS was injected intraperitoneally to rats at a dose of 2.5 mg/kg to activate COX-2 in this experiment. After administration, the content of PGE2 in gastric mucosa was measured using an enzyme-linked immunosorbent assay (EIA) kit (operated according to the instructions provided by the manufacturer) and converted to COX2 activity.
The percentage inhibition rate against COX-1 (FIG. 1a—gastric mucosa, FIG. 1b—myocardium) and COX-2 (FIG. 1c) and the IC50 values (Table 1a—gastric mucosa; Table 1b—myocardium) of each tested pharmaceutical compound were calculated from the above data.

[1] = test system: normal mouse intestinal mucosa cells; assay: Cisplatin damage of normal cells with compound (LDH); assay type: cell-based; conditions: all tested concentrations except the high concentration, 24 hours
Experimental: The mechanism of compounds enhancing killing effect of chemotherapeutic agents on tumor cells while protecting normal cells: mouse colon cancer cells (MCA-38) and primarily-cultured normal mouse intestinal mucosa cells were cultured in a 96-well plate, respectively. 24 hours later, various concentrations (10, 30 and 90 μM) of compound b was respectively added to the cell culture medium, and incubated for 24 hours. LDH was used to detect the damage of the cells, and the cells were collected and extracted for protein. The expression levels of adenosine triphosphate-binding transporter (ABCG2) and the cell cycle-dependent protein […] (p21) were detected by immunoblotting (performed according to the instructions provided by the manufacturer). […] ABCG2 is a transporter, and can pump anticancer drugs out of the cells. […] The high expression of p21 allows the cells to be in non-dividing quiescent phase, so that cells are not sensitive to chemotherapeutic drugs or injury in other forms. The compounds of the present invention make these proteins expressed differentially in normal tissues and tumor tissues, which is one of the reasons for selectively protecting normal tissues and enhancing the sensitivity of tumors to treatment.

[2] = Degradation of the compound in plasma (10% bovine serum medium, HPLC); assay type: in vitro ADME; conditions: 10 μM, 37° C., within 24 hours
Experimental: Determination of the stability of the compound: (1) degradation of the compound in plasma: Compound a (10 μM) dissolved in DMSO was cultured with 10% bovine serum medium (5 mL) at 37° C. 200 μL of medium was collected at the time points of 1, 3, 6, 12 and 24 hours, respectively, added with equal volume of acetonitrile for reaction, and subjected to high speed centrifugation (13,000 rpm) for 5 minutes. The level of degradation of the compound was determined by HPLC. (2) Degradation of the compound in cells: the compound a dissolved in DMSO was added at a final concentration of 10 μM to a 6-well culture dish containing SW480 cells and incubated in carbon dioxide incubator. The cells were collected at the time points of 1, 3, 6, 12, and 24 hours, respectively, washed fully, then extracted with 0.5 mL of acetonitrile, and centrifuged at high speed (12,000 rpm) for 5 minutes. The level of degradation of the compound in the organic phase was determined by HPLC.

[3] = test system: colon cancer cells (SW480); conditions: SW480 tumors in nude mice
Experimental: The experiment was carried out using compound a in this example. Under sterile conditions, a suspension of colon cancer cells (SW480) in logarithmic growth phase (cell concentration was adjusted to 1×10^7/mL with physiological saline) was inoculated subcutaneously to 5 to 6 weeks old balb/c female nude mice on the right rear back, and each nude mice was inoculated at an amount of 0.3 ml, i.e. the number of cells contained was 3×10^6 per each mouse. 10 days later, subcutaneous transplanted tumor of 100-250 mm^3 appeared. The nude mice with tumor were randomly divided into several groups, each containing 6 mice: (1) control group; (2) doxorubicin group; (3) doxorubicin+amifostine; (4) doxorubicin+Celecoxib+intermediate II; (5) doxorubicin+intermediate I+intermediate II; (6) doxorubicin+low-dose compound a (6 mg/kg/day); (7) doxorubicin+high-dose compound a (15 mg/kg/day). Firstly, the following compounds were administered to each group of nude mice with tumor according to the following doses: intermediate I and intermediate II (3 mg/kg/day respectively), amifostine (400 mg/kg/day), Celecoxib (6 mg/kg/day). Except that amifostine was subcutaneously injected (30 minutes before irradiation), the other protective agents were administered by gavage. The above drugs were administered every day for 5 weeks continuously. 12 hours after the administration, doxorubicin (2.5 mg/kg) was injected intraperitoneally, and it was administered once every 2 days for 5 weeks. During the dosing period, the body weight of the nude mice was measured every two days with a precision electronic balance. The growth of the tumor and whether or not red and swelling and rupture occur were observed every day after inoculation. After tumor formation, the surface morphology and activity of the transplanted tumor were examined, and the longest diameter (a) and the shortest diameter (b) of the tumor nodules were measured every 3 days with a vernier caliper. […] 21 days after administration of doxorubicin, the tail vein blood of mice was collected to perform leukocyte count and blood biochemical index analysis. The tumor tissue and normal peripheral tissues were taken on the last day of treatment, and the content of the intermediate I therein was measured by HPLC (FIG. 9a). At the same time, paraffin sections were made, the occurrence of apoptosis was detected by terminal labeling (FIG. 9b), and the relative survival percentages of normal tissue and tumor tissue were calculated (the results are summarized in FIG. 9b).

HT-29 cells = assay: HT-29 transplanted tumors in nude mice, compound a in combination with doxorubicin; assay type: in vivo; conditions: Doxorubicin 2 mg/kg/week i.p. or compound a 3 mg/kg/day gavage, 4 weeks
Experimental: Compound a was administered by gavage once a day for 4 weeks continuously; Doxorubicin was injected intraperitoneally once a week for 4 weeks. Body weight and tumor volume of animals were measured and calculated according to Example 9.

Structure (SMILES) | inhibition against COX-2 (COX-2) | cisplatin damage of normal intestinal mucosa cells [1] | compound hydrolyzed in bovine serum [2] [%] | effect on tumor / on sensitivity of tumor to doxorubicin ([3]; doxorubicin 2.5 mg/kg i.p. every 2 days for 5 weeks, agents daily) | death of animals during treatment ([3]; doxorubicin 2.5 mg/kg i.p., 6 mice per group) | protection of normal tissue and cells from doxorubicin ([3]; with doxorubicin) | inhibition of the tumor, administered alone (HT-29 cells)
COc1ccc2c(CC(=O)OCCCCCCCCCCc3c(C)c(O)c(OC)c(OC)c3O)c(C)n(C(=O)c3ccc(Cl)cc3)c2c1 [compound b] | significantly enhanced | significantly inhibit cisplatin from damaging normal intestinal mucosa cells | – | – | – | – | –
COC1=C(OC)C(=O)C(CCCCCCCCCCOC(=O)Cc2c(C)n(C(=O)c3ccc(Cl)cc3)c3cc(OC)ccc23)=C(C)C1=O [compound a] | significantly enhanced | – | 11 | significantly enhance the sensitivity of tumor cells to chemotherapy | No death occurs | effective in inhibiting the killing effect of Doxorubicin on normal leukocytes, cardiomyocytes and peripheral normal tissues around the tumor | only slightly inhibited
